According to US5041567A, “Antibacterial monic acid derivatives” (Beecham Group plc, priority 1982, dated 1991):
≈ marks a conversion by molar mass, not a printed value. Where two headings read alike, the source gives them in different places.

Experiments:
[1] = tested on: M. bovigenitalium ATCC 14173; assay: MIC against mycoplasma in vitro; type: cell-based; conditions: 144 h
[2] = tested on: Staph. aureus 152 (pen. sens); assay: MIC against veterinary bacteria in vitro; conditions: Staphylococcus aureus, 18 h
Protocol: (§1) The activity of the compounds of the Examples against various veterinarily important bacteria, was assayed in vitro using two-fold serial dilutions in Diagnostic Sensitivity Test Agar inoculated with 10^4 organisms.

[3] = tested on: M. suipneumoniae J2206/183^b; assay: MIC against mycoplasma in vitro; type: cell-based; conditions: Mesomycoplasma hyopneumoniae, 144 h
[4] = tested on: Haemophilus influenzae Wy21; assay: MIC against human bacteria in vitro; type: cell-based
[5] = tested on: Ps. aeruginosa NCTC 10662; assay: MIC against human bacteria in vitro; type: cell-based; conditions: Pseudomonas aeruginosa
[6] = tested on: Neisseria catarrhalis 1502; assay: MIC against human bacteria in vitro; type: cell-based
Staph. aureus Oxford = assay: MIC against veterinary bacteria in vitro; conditions: Staphylococcus aureus, 18 h
Protocol: as §1

M. gallisepticum S6 = assay: MIC against mycoplasma in vitro; type: cell-based; conditions: Mycoplasmoides gallisepticum, 144 h; M. gallisepticum S6; 6 days, 37° C.; read-out: MIC
M. suipneumoniae JF 435 = assay: MIC against mycoplasma in vitro; type: cell-based; conditions: Mesomycoplasma hyopneumoniae, JF435, 144 h
[7] = tested on: M. hyosynoviae ATCC 25591; assay: MIC against mycoplasma in vitro; type: cell-based; conditions: 144 h
[8] = tested on: Strep. pyogenes R80/421-A; assay: MIC against human bacteria in vitro; type: cell-based; conditions: Streptococcus pyogenes
M. suipneumoniae Str. 11 = assay: MIC against mycoplasma in vitro; type: cell-based; conditions: Mesomycoplasma hyopneumoniae
M. suipneumoniae NB12 = assay: MIC against mycoplasma in vitro; type: cell-based; conditions: Mesomycoplasma hyopneumoniae
[9] = tested on: Erysipelothrix rhusiopathiae NCTC 8163; assay: MIC against veterinary bacteria in vitro; conditions: Erysipelothrix rhusiopathiae, NCTC8163, 18 h
Protocol: as §1

[10] = tested on: M. suipneumoniae NCTC 10110; assay: MIC against mycoplasma in vitro; type: cell-based; conditions: Mesomycoplasma hyopneumoniae, NCTC10110, 144 h
[11] = tested on: Haemophilus influenzae Q1; assay: MIC against human bacteria in vitro; type: cell-based; conditions: Haemophilus influenzae Q1; 5% chocolated horse blood agar, 18 hours; read-out: MIC
Past. haemolytica PA5 = assay: MIC against veterinary bacteria in vitro; conditions: Mannheimia haemolytica, PA5, 18 h
Protocol: as §1

[12] = tested on: Corynebacterium pyogenes CY1; assay: MIC against veterinary bacteria in vitro; conditions: CY1, 18 h
Protocol: as §1

E. coli NCTC 10418 = assay: MIC against veterinary bacteria in vitro; conditions: Escherichia coli, NCTC10418, 18 h
Protocol: as §1

M. bovis NCTC 10131 = assay: microbe, parasite or virus in culture; type: cell-based; conditions: NCTC10131, 144 h
S. typhimurium S18 = assay: MIC against veterinary bacteria in vitro; conditions: Salmonella enterica, TYPHIMURIUM, 18 h
Protocol: as §1

Strep. uberis SPU1 = assay: MIC against veterinary bacteria in vitro; conditions: Streptococcus uberis, SPU1, 18 h
Protocol: as §1

M. pneumoniae ATCC 15492 = assay: MIC against mycoplasma in vitro; type: cell-based; conditions: Mycoplasmoides pneumoniae, ATCC15492, 144 h
[13] = M. bovigenitalium ATCC 14173, 6 days, 37° C., read-out: MIC
[14] = M. suipneumoniae J2206/183^b, 6 days, 37° C., read-out: MIC
[15] = Haemophilus influenzae Wy21, 5% chocolated horse blood agar, 18 hours, read-out: MIC
[16] = M. suipneumoniae JF 435, 6 days, 37° C., read-out: MIC
[17] = M. hyosynoviae ATCC 25591, 6 days, 37° C., read-out: MIC
[18] = 144 h, M. suipneumoniae Str. 11, 6 days, 37° C., read-out: MIC
[19] = 144 h, M. suipneumoniae NB12, Friis broth, 0.9% agarose, 6 days, 37° C., read-out: MIC
[20] = M. suipneumoniae NCTC 10110, 6 days, 37° C., read-out: MIC
[21] = NCTC10662, Ps. aeruginosa NCTC 10662, 5% chocolated horse blood agar, 18 hours, read-out: MIC
[22] = Neisseria catarrhalis 1502, 5% chocolated horse blood agar, 18 hours, read-out: MIC
[23] = Strep. pyogenes R80/421-A, 5% chocolated horse blood agar, 18 hours, read-out: MIC
[24] = M. pneumoniae ATCC 15492, 6 days, 37° C., read-out: MIC

| SMILES | MIC [1, 13] [mg/L] | MIC [2] [mg/L] | MIC [3, 14] [mg/L] | MIC [4, 15] [mg/L] | MIC (Staph. aureus Oxford) [mg/L] | MIC (M. gallisepticum S6) [mg/L] | MIC (M. suipneumoniae JF 435; [16]) [mg/L] | MIC [7, 17] [mg/L] | MIC (M. suipneumoniae Str. 11; [18]) [mg/L] | MIC (M. suipneumoniae NB12; [19]) [mg/L] | MIC [9] [mg/L] | MIC [11] [mg/L] | MIC (Past. haemolytica PA5) [mg/L] | MIC [12] [mg/L] | MIC (E. coli NCTC 10418) [mg/L] | MIC (M. bovis NCTC 10131) [mg/L] | MIC (S. typhimurium S18) [mg/L] | MIC (Strep. uberis SPU1) [mg/L] | MIC [5, 21] [mg/L] | MIC [6, 22] [mg/L] | further results |
| --- | --- | --- | --- | --- | --- | --- | --- | --- | --- | --- | --- | --- | --- | --- | --- | --- | --- | --- | --- | --- | --- |
| C/C(=C/c1ncc(-c2ccccc2)o1)C[C@@H]1OC[C@H](C[C@@H]2O[C@H]2[C@@H](C)[C@H](C)O)[C@@H](O)[C@H]1O [Example 2, 2-{3-[5-(2,3-epoxy-5-hydroxy-4-methylhexyl)-3,4-dihydroxytetrahydropyran-2-yl]-2-methylprop-1(Z)-enyl}-5-phenyloxazole] | 0.5 (≈ 1.13 µM) | 20 (≈ 45.1 µM) | 10 (≈ 22.5 µM) | 12.5 (≈ 28.2 µM) | 20 (≈ 45.1 µM) | > 10 | > 10 | 5 (≈ 11.3 µM) | 10 (≈ 22.5 µM) | > 10 | > 80 | 12.5 (≈ 28.2 µM) | > 80 | > 80 | > 80 | 0.25 (≈ 0.564 µM) | > 80 | 5 (≈ 11.3 µM) | – | – | MIC ([5]; NCTC10662, 18 h): > 50 mg/L; MIC ([6]; Neisseria, 1502, 18 h): > 50 mg/L; MIC ([8]; R80/421A, 18 h): > 50 mg/L; MIC [10, 20]: 10 mg/L (≈ 22.5 µM) |
| C/C(=C\c1ncc(-c2cccc(C#N)c2)o1)C[C@@H]1OC[C@H](C[C@@H]2O[C@H]2[C@@H](C)[C@H](C)O)[C@@H](O)[C@H]1O [Example 5, 5-m-cyanophenyl-2-(1-normon-2-yl)oxazole A] | – | 0.625 (≈ 1.33 µM) | 0.1 (≈ 0.213 µM) | 1.2 (≈ 2.56 µM) | 0.625 (≈ 1.33 µM) | 0.5 (≈ 1.07 µM) | 0.1 (≈ 0.213 µM) | – | 0.05 (≈ 0.107 µM) | 0.05 (≈ 0.107 µM) | 80 (≈ 171 µM) | 1.2 (≈ 2.56 µM) | 40 (≈ 85.4 µM) | 80 (≈ 171 µM) | > 80 | ≤ 0.01 | > 80 | 0.07 (≈ 0.149 µM) | > 50 | – | MIC [1]: 0.025 mg/L (≈ 0.0534 µM); MIC ([6]; Neisseria, 1502, 18 h): 5 mg/L (≈ 10.7 µM); MIC [7]: 0.25 mg/L (≈ 0.534 µM); MIC [10]: 0.1 mg/L (≈ 0.213 µM); MIC (M. pneumoniae ATCC 15492): 0.25 mg/L (≈ 0.534 µM) |
| C/C(=C\c1cc(C)on1)C[C@@H]1OC[C@H](C[C@@H]2O[C@H]2[C@@H](C)[C@H](C)O)[C@@H](O)[C@H]1O [Example 33, 5-Methyl-3-(1-normon-2-yl) isoxazole A] | 0.5 (≈ 1.31 µM) | 2.5 (≈ 6.55 µM) | – | – | 2.5 (≈ 6.55 µM) | > 10 | – | – | – | – | > 80 | – | 20 (≈ 52.4 µM) | > 80 | > 80 | 0.25 (≈ 0.655 µM) | > 80 | 5 (≈ 13.1 µM) | > 128 | 4 (≈ 10.5 µM) | MIC [3]: 1 mg/L (≈ 2.62 µM); MIC ([4]; Haemophilus influenzae, WY21, 18 h): 0.25 mg/L (≈ 0.655 µM); MIC (M. suipneumoniae JF 435): 2.5 mg/L (≈ 6.55 µM); MIC [7]: 2.5 mg/L (≈ 6.55 µM); MIC [8, 23]: 8 mg/L (≈ 21 µM); MIC (M. suipneumoniae Str. 11; STR.11, 144 h): 1 mg/L (≈ 2.62 µM); MIC (M. suipneumoniae NB12; NB12, 144 h): 2.5 mg/L (≈ 6.55 µM); MIC [10]: 2.5 mg/L (≈ 6.55 µM); MIC (M. pneumoniae ATCC 15492; [24]): 10 mg/L (≈ 26.2 µM) |
| C/C(=C\c1cc(-c2ccccc2)on1)C[C@@H]1OC[C@H](C[C@@H]2O[C@H]2[C@@H](C)[C@H](C)O)[C@@H](O)[C@H]1O [Example 34, 3-(1-Normon-2-yl)-5-phenylisoxazole A] | – | 2.5 (≈ 5.64 µM) | – | 2 (≈ 4.51 µM) | 5 (≈ 11.3 µM) | > 10 | – | 5 (≈ 11.3 µM) | – | – | > 80 | – | > 80 | > 80 | > 80 | 0.25 (≈ 0.564 µM) | > 80 | 5 (≈ 11.3 µM) | > 128 | 4 (≈ 9.02 µM) | MIC [1]: 1 mg/L (≈ 2.25 µM); MIC [3]: 2.5 mg/L (≈ 5.64 µM); MIC (M. suipneumoniae JF 435): 2.5 mg/L (≈ 5.64 µM); MIC [8, 23]: 8 mg/L (≈ 18 µM); MIC (M. suipneumoniae Str. 11; STR.11, 144 h): 1 mg/L (≈ 2.25 µM); MIC (M. suipneumoniae NB12; NB12, 144 h): 2.5 mg/L (≈ 5.64 µM); MIC [10]: 2.5 mg/L (≈ 5.64 µM); MIC (M. pneumoniae ATCC 15492; [24]): 5 mg/L (≈ 11.3 µM) |
| C/C(=C\c1nc(C)c(C)o1)C[C@@H]1OC[C@H](C[C@@H]2O[C@H]2[C@@H](C)[C@H](C)O)[C@@H](O)[C@H]1O [Example 39, 4,5-Dimethyl-2-(1-normon-2-yl)oxazole A] | 5 (≈ 12.6 µM) | > 80 | > 10 | 2.5 (≈ 6.32 µM) | > 80 | > 10 | > 10 | > 10 | > 10 | > 10 | > 80 | 5 (≈ 12.6 µM) | 80 (≈ 202 µM) | > 80 | > 80 | 5 (≈ 12.6 µM) | > 80 | > 80 | > 100 | 25 (≈ 63.2 µM) | MIC [10, 20]: > 10 mg/L; MIC (M. pneumoniae ATCC 15492; [24]): > 10 mg/L |
| C/C(=C\c1nc(C)c(-c2ccccc2)o1)C[C@@H]1OC[C@H](C[C@@H]2O[C@H]2[C@@H](C)[C@H](C)O)[C@@H](O)[C@H]1O [Example 40, 4-Methyl-2-(1-normon-2-yl)-5-phenyloxazole A] | 10 (≈ 21.9 µM) | 80 (≈ 175 µM) | > 10 | 50 (≈ 109 µM) | 80 (≈ 175 µM) | > 10 | > 10 | > 10 | > 10 | > 10 | > 80 | 50 (≈ 109 µM) | > 80 | 80 (≈ 175 µM) | > 80 | 5 (≈ 10.9 µM) | > 80 | 40 (≈ 87.4 µM) | > 100 | 50 (≈ 109 µM) | MIC [10, 20]: > 10 mg/L; MIC (M. pneumoniae ATCC 15492; [24]): > 10 mg/L |
